# According to patent US20260327191A1, “GSK3a INHIBITORS AND METHODS OF USE THEREOF” (Blueprint Medicines Corporation, priority 2023, published 2026):
# Columns and labels:
# human GSK3α = target: T1, human GSK3α (Homo sapiens, UniProt P49840); assay: In vitro enzymatic activity assay, GSK3α; format: biochemical; conditions: 1.0 mM ATP, 1.0 μM peptide substrate, 120 min, 25° C, read-out: Enzyme GSK3α (IC50)
# T1 construct: Full length human GSK3α or GSK3B expressed as N-terminal GST fusion proteins; GST (N); purchased Carna Biosciences (Japan); host or cells: baculovirus host
# GSK3B [1] = target: T2, GSK3B (Homo sapiens, UniProt P49841); assay: NanoBRET cellular target engagement assay, Nanoluc-GSK3B in HEK293 cells; format: cell-based; set-up: expressed in transfected cells; conditions: NanoBRET GSK3β IC50, HEK293 cells, tracer K-8, 2 hours, 37° C
# GSK3A = target: T3, GSK3A (Homo sapiens, UniProt P49840); assay: NanoBRET cellular target engagement assay, Nanoluc-GSK3A in HEK293 cells; format: cell-based; conditions: NanoBRET GSK3α IC50, HEK293 cells, tracer K-8, 2 hours, 37° C
# T3 construct: expressed in transfected cells
# GSK3B [2] = target: T2, GSK3B; assay: In vitro enzymatic activity assay, GSK3β; format: biochemical; set-up: Full length human GSK3α or GSK3B expressed as N-terminal GST fusion proteins; GST (N); purchased Carna Biosciences (Japan); host or cells: baculovirus host; conditions: 1.0 mM ATP, 1.0 μM peptide substrate, 120 min, 25° C, read-out: Enzyme GSK3β (IC50)
# T2 sequence (P49841 whole entry): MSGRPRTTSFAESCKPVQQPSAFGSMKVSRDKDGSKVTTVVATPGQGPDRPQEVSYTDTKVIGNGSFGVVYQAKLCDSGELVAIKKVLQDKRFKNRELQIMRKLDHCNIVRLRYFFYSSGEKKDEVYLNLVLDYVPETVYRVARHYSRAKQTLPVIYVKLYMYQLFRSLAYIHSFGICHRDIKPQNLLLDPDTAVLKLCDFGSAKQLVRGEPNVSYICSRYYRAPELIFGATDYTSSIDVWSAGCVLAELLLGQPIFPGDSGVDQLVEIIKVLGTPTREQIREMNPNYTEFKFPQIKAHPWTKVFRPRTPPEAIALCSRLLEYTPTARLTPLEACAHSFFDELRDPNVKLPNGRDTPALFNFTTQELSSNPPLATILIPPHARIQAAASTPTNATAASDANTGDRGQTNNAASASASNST
# T1 sequence (P49840 whole entry, the tested form may be a part): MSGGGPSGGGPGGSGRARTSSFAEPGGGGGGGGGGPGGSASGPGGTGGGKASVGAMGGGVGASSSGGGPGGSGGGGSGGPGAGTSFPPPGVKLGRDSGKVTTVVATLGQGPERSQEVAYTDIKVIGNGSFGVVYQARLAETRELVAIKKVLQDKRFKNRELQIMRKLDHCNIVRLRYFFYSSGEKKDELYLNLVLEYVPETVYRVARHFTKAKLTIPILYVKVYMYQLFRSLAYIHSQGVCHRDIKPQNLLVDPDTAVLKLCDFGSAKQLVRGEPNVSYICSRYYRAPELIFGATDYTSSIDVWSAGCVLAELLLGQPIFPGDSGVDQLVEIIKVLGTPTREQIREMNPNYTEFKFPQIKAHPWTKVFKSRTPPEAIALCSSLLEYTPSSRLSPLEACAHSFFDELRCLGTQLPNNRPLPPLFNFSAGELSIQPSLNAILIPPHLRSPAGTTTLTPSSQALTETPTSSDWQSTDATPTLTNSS
# T3 sequence (P49840 whole entry): as the sequence (P49840 whole entry, the tested form may be a part) above
SMILES,IC50 (human GSK3α) [nM],IC50 (GSK3B [1]) [nM],IC50 (GSK3A) [nM],IC50 (GSK3B [2]) [nM]
"COCC[C@@H](N)c1cncc(NC(=O)c2c(N)ncn(-c3c(Cl)cccc3Cl)c2=O)c1 (single isomer, unassigned) [Example 197, (R)-4-amino-N-(5-(1-amino-3-methoxypropyl)pyridin-3-yl)-1-(2,6-dichlorophenyl)-6-oxo-1,6-dihydropyrimidine-5-carboxamide or (S)-4-amino-N-(5-(1-amino-3-methoxypropyl)pyridin-3-yl)-1-(2,6-dichlorophenyl)-6-oxo-1,6-dihydropyrimidine-5-carboxamide]",15,403,7.2,850
"CCOc1cc(C)c(-n2cnc(N)c(C(=O)Nc3cccc([C@H](N)COC)c3)c2=O)c(Cl)c1 (atropisomer, axis not shown) [Example 72, (S)-4-amino-N-(3-(1-amino-2-methoxyethyl)phenyl)-1-((S)-2-chloro-4-ethoxy-6-methylphenyl)-6-oxo-1,6-dihydropyrimidine-5-carboxamide]",7.5,379,5.1,468
"COCc1cc(C)c(-n2cnc(N)c(C(=O)Nc3cncc([C@H]4CCCCN4)c3)c2=O)c(C)c1 [Example 98, (R)-4-amino-1-(4-(methoxymethyl)-2,6-dimethylphenyl)-6-oxo-N-(5-(piperidin-2-yl)pyridin-3-yl)-1,6-dihydropyrimidine-5-carboxamide]",4.6,134,2.5,254
"Cc1cc(C(F)F)cc(C)c1-n1cnc(N)c(C(=O)Nc2cncc([C@H]3CCC[C@H](C)N3)c2)c1=O (single isomer, unassigned) [Example 108]",24.6,688,8.7,998
"COCc1cc(C)c(-n2cnc(N)c(C(=O)Nc3cncc(C4(N)CCC4)c3)c2=O)c(C)c1 [Example 157, 4-amino-N-(5-(1-aminocyclobutyl)pyridin-3-yl)-1-(4-(methoxymethyl)-2,6-dimethylphenyl)-6-oxo-1,6-dihydropyrimidine-5-carboxamide]",32.5,1160,11.3,1320
"CCOCc1cc(C)c(-n2cnc(N)c(C(=O)Nc3cncc(C4CCCCCN4)c3)c2=O)c(C)c1 (single isomer, unassigned) [Example 132, (R)-4-amino-N-(5-(azepan-2-yl)pyridin-3-yl)-1-(4-(ethoxymethyl)-2,6-dimethylphenyl)-6-oxo-1,6-dihydropyrimidine-5-carboxamide or (S)-4-amino-N-(5-(azepan-2-yl)pyridin-3-yl)-1-(4-(ethoxymethyl)-2,6-dimethylphenyl)-6-oxo-1,6-dihydropyrimidine-5-carboxamide]",5.5,181,2,228
"COc1cc(Cl)c(-n2cnc(N)c(C(=O)Nc3cnc(F)c([C@@H]4CCCCN4)c3)c2=O)c(Cl)c1 (single isomer, unassigned) [Example 76, (S)-4-amino-1-(2,6-dichloro-4-methoxyphenyl)-N-(6-fluoro-5-(piperidin-2-yl)pyridin-3-yl)-6-oxo-1,6-dihydropyrimidine-5-carboxamide or (R)-4-amino-1-(2,6-dichloro-4-methoxyphenyl)-N-(6-fluoro-5-(piperidin-2-yl)pyridin-3-yl)-6-oxo-1,6-dihydropyrimidine-5-carboxamide]",16,591,9.4,854
"CCNCc1cncc(NC(=O)c2c(N)ncn(-c3c(Cl)cccc3Cl)c2=O)c1 [Example 5, 4-amino-1-(2,6-dichlorophenyl)-N-(5-((ethylamino)methyl)pyridin-3-yl)-6-oxo-1,6-dihydropyrimidine-5-carboxamide]",8.3,383,6.2,378
"Nc1ncn(-c2c(Cl)cccc2Cl)c(=O)c1C(=O)Nc1cccc([C@@H]2COCCCN2)c1 (single isomer, unassigned) [Example 211, (R)—N-(3-(1,4-oxazepan-3-yl)phenyl)-4-amino-1-(2,6-dichlorophenyl)-6-oxo-1,6-dihydropyrimidine-5-carboxamide or (S)—N-(3-(1,4-oxazepan-3-yl)phenyl)-4-amino-1-(2,6-dichlorophenyl)-6-oxo-1,6-dihydropyrimidine-5-carboxamide]",15.9,797,8.6,888
"CCOc1cc(Cl)c(-n2cnc(N)c(C(=O)Nc3cncc(C(N)CC)c3)c2=O)c(Cl)c1 (single isomer, unassigned) [Example 136, (R)-4-amino-N-(5-(1-aminopropyl)pyridin-3-yl)-1-(2,6-dichloro-4-ethoxyphenyl)-6-oxo-1,6-dihydropyrimidine-5-carboxamide or (S)-4-amino-N-(5-(1-aminopropyl)pyridin-3-yl)-1-(2,6-dichloro-4-ethoxyphenyl)-6-oxo-1,6-dihydropyrimidine-5-carboxamide]",2.9,118,1.8,206
"CCOc1cc(C)c(-n2cnc(N)c(C(=O)Nc3cccc([C@@H](C)NC)c3)c2=O)c(Cl)c1 (atropisomer, axis not shown) [Example 71, (R)-4-amino-1-((S)-2-chloro-4-ethoxy-6-methylphenyl)-N-(3-(1-(methylamino)ethyl)phenyl)-6-oxo-1,6-dihydropyrimidine-5-carboxamide]",6.3,353,4.8,383
"COC[C@@H](N)c1cccc(NC(=O)c2c(N)ncn(-c3c(Cl)cccc3C(F)F)c2=O)c1 (atropisomer, axis not shown) [Example 7, (S)-4-amino-N-(3-(1-amino-2-methoxyethyl)phenyl)-1-((S)-2-chloro-6-(difluoromethyl)phenyl)-6-oxo-1,6-dihydropyrimidine-5-carboxamide]",7.5,480,7.1,337
"C[C@@H](N)c1cncc(NC(=O)c2c(N)ncn(-c3c(Cl)cc(Cl)cc3Cl)c2=O)c1 (single isomer, unassigned) [Example 50, (R)-4-amino-N-(5-(1-aminoethyl)pyridin-3-yl)-6-oxo-1-(2,4,6-trichlorophenyl)-1,6-dihydropyrimidine-5-carboxamide or (S)-4-amino-N-(5-(1-aminoethyl)pyridin-3-yl)-6-oxo-1-(2,4,6-trichlorophenyl)-1,6-dihydropyrimidine-5-carboxamide]",16.5,439,7.4,708
"CCOc1cc(Cl)c(-n2cnc(N)c(C(=O)Nc3cncc(C(COC)NC)c3)c2=O)c(Cl)c1 (single isomer, unassigned) [Example 141, (R)-4-amino-1-(2,6-dichloro-4-ethoxyphenyl)-N-(5-(2-methoxy-1-(methylamino)ethyl)pyridin-3-yl)-6-oxo-1,6-dihydropyrimidine-5-carboxamide or (S)-4-amino-1-(2,6-dichloro-4-ethoxyphenyl)-N-(5-(2-methoxy-1-(methylamino)ethyl)pyridin-3-yl)-6-oxo-1,6-dihydropyrimidine-5-carboxamide]",4.1,318,2.9,232
"Cc1cc(CCF)cc(C)c1-n1cnc(N)c(C(=O)Nc2cncc(C(C)N)c2)c1=O (single isomer, unassigned) [Example 155, (R)-4-amino-N-(5-(1-aminoethyl)pyridin-3-yl)-1-(4-(2-fluoroethyl)-2,6-dimethylphenyl)-6-oxo-1,6-dihydropyrimidine-5-carboxamide or (S)-4-amino-N-(5-(1-aminoethyl)pyridin-3-yl)-1-(4-(2-fluoroethyl)-2,6-dimethylphenyl)-6-oxo-1,6-dihydropyrimidine-5-carboxamide]",9.9,279,3.7,374
"CNC(COC)c1cncc(NC(=O)c2c(N)ncn(-c3c(Cl)cc(C(F)(F)F)cc3Cl)c2=O)c1 (single isomer, unassigned) [Example 122, (R)-4-amino-1-(2,6-dichloro-4-(trifluoromethyl)phenyl)-N-(5-(2-methoxy-1-(methylamino)ethyl)pyridin-3-yl)-6-oxo-1,6-dihydropyrimidine-5-carboxamide or (S)-4-amino-1-(2,6-dichloro-4-(trifluoromethyl)phenyl)-N-(5-(2-methoxy-1-(methylamino)ethyl)pyridin-3-yl)-6-oxo-1,6-dihydropyrimidine-5-carboxamide]",5.3,314,5,327
"Nc1ncn(-c2c(Cl)cccc2Cl)c(=O)c1C(=O)Nc1cccc([C@@H]2CNC(=O)CN2)c1 (single isomer, unassigned) [Example 190, (R)-4-amino-1-(2,6-dichlorophenyl)-6-oxo-N-(3-(5-oxopiperazin-2-yl)phenyl)-1,6-dihydropyrimidine-5-carboxamide or (S)-4-amino-1-(2,6-dichlorophenyl)-6-oxo-N-(3-(5-oxopiperazin-2-yl)phenyl)-1,6-dihydropyrimidine-5-carboxamide]",37.6,3300,26.7,971
